This is an account of results in patent publication US12410472B2, “Method for evaluating the eye irritation potential of chemicals” (IMMUNOSEARCH, priority 2016, dated 2025).

Counter-ions that a name gives are not always drawn. Like-named read-outs stand apart in the source and are kept apart here.

Series [1] concerns reconstructed human corneal epithelium model (SkinEthic™ HCE). The source says: (§1) The reconstructed human corneal epithelium model, (SkinEthic™ HCE) was purchased from Episkin in Lyon. The model consists of immortalized human corneal epithelial cells grown in a defined medium at the air-liquid interface. The tissue structure obtained is a multi-layer epithelium similar to the natural tissue structure of the human cornea, comprising 5-7 layers with a surface area of 0.5 cm^2.
(§2) Polyhedral cells and wing cells are also present. The tissue also comprises specific ultrastructures such as intermediate filaments, mature hemidesmosomes and desmosomes. […] The tissues are shipped on a semi-solid layer of agarose culture medium. Upon receipt, the tissues are transferred to maintenance medium (1 ml/well) in 6-well plates and incubated in a climatic chamber at 37° C., 5% CO2. The tissues are used 24 hours later.
The procedure for applying solid (powdered) products to the tissues was optimized as follows. First, the products are reduced to the finest possible powder with a mortar. The chemicals are tested at a single dose. In summary, the tissue surface is moistened by adding 20 μl of PBS at 37° C. and incubation for 10 min at 37° C./5% CO2. The corneal epithelia are then treated topically with 30±2 mg (representing 60 mg/cm2) and incubated for 30 min at room temperature. The tissues are then washed with sterile PBS (2×25 ml) at 37° C. PBS is applied to the edge of the insert (not directly on the tissue) to create a gentle vortex that removes the chemical. The tissues on their inserts are then “embedded” in 5 ml of maintenance medium at room temperature for 30 minutes in order to remove as much as possible of the product remaining on the tissue surface. The medium is then removed by gently tapping the insert on absorbent paper, and 50 μl of maintenance medium at 37° C. is added. The inserts are then incubated for 6 h at 37° C./5% CO2.
(§3) In summary, corneal tissues are recovered with forceps and placed in tubes for rapid freezing in liquid nitrogen. The RNA is then extracted by the QIAzol technique (Qiagen, Courtaboeuf, France) with an “RNeasy Mini Kit” according to the manufacturer's instructions. In summary, the tissues are placed in 1 ml of QIAzol and homogenized using the TissueLyser II (Qiagen, Courtaboeuf, France) with 2 steel beads. After centrifugation, the supernatant is collected and 0.2 ml of bromochloro propane (Sigma, France) is added, then the whole is vigorously mixed. The homogenate is centrifuged at 12,000 g for 15 min at 4° C. The upper phase (aqueous phase) is added to 600 μl of 70% ethanol and immediately mixed by pipetting. The mixture is transferred to an RNeasy spin column placed on a 2 ml collection tube and the RNA is collected according to the manufacturer's instructions (Qiagen, Courtaboeuf, France).
(§4) In summary, the transcription of total RNA is performed with 1 μg of total RNA in a final volume of 20 μl using “Random Primers” (Invitrogen, France) and “SuperScript III Reverse Transcriptase” (Invitrogen, France) according to the manufacturer's instructions. Quantitative RT-PCR uses a PCR reagent mix: SYBR Green Real-Time PCR Master Mix (ROCHE, France) with 0.4 μM of each nucleotide primer in a final volume of 25 μl. The reaction is performed in an LC480 System (ROCHE, France). The amplification program comprises a cycle at 95° C. for 1 min, followed by 40 cycles with denaturation at 95° C. for 15 s, a hybridization and amplification phase at 60° C. for 15 s, followed by a final elongation phase at 72° C. for 40 s.
The relative amount of each transcript is normalized to the average amount of expression of 5 so-called housekeeping genes (Glucuronidase β-GUSB, vacuolar ATPase-ATP6V0E1, H2A Histone Family, Member Y-H2AFY, Glucose-6-Phosphate Dehydrogenase-G6PD and “non-POU domain-containing, octamer-binding”-NONO).
The gene expression rate is measured by an absolute quantification analysis method using an algorithm based on the maximum of the second derivative developed by Roche.

In the next series the test system is eye. Particulars: cited from earlier work; for UN GHS: Table 1, list of liquid products studied.
In series [2] the test system is reconstructed human corneal epithelium model (SkinEthic™ HCE). The note with it: liquid products; category from LII at 100% and 30%.
Text: as §1, §2
Liquid products are tested for solubility in phosphate-buffered saline (PBS) or olive oil. In summary, 100 μl of the test product is mixed with 200 μl of PBS or olive oil.
The sample is mixed on a vortex mixer. Turbidity and possible phase separation are assessed by eye. The products are tested pure or diluted to 30%. Products that are not soluble in PBS or olive oil cannot be tested at 30%.
The procedure for applying liquid products to the tissues was optimized as follows: the chemicals are tested at two concentrations, 100% and 30%. In summary, the tissue surface is moistened by adding 20 μl of PBS at 37° C. and incubation for 10 min at 37° C./5% CO2. The corneal epithelia are then treated topically with 50±2 μL of the test product (corresponding to 100 μL/cm2) and incubated for 10 min at room temperature. The tissues are then washed with sterile PBS (2×25 ml) at 37° C. PBS is applied to the edge of the insert (not directly on the tissue) to create a gentle vortex that removes the chemical. The tissues on their inserts are then “embedded” in 5 ml of maintenance medium at room temperature for 30 min in order to remove as much as possible of the product remaining on the tissue surface. The medium is then removed by gently tapping the insert on absorbent paper, and 50 μl of maintenance medium at 37° C. is added. The inserts are then incubated for 6 h at 37° C./5% CO2.
as §3, §4

[3] abbreviates: classification from the Solid Irritation Index.
Where [4] appears, read: solid product applied pure in powder form, 30±2 mg, first of three index values.
Where [5] appears, read: solid product applied pure in powder form, 30±2 mg, second of three index values.
Where [6] appears, read: solid product applied pure in powder form, 30±2 mg, third of three index values.
Where [7] appears, read: Table 6, list of solid chemicals studied.
Setting [8] is: control chemicals and chemicals of FIG. 1 and FIG. 2.
The mark [9] stands for this setting: Table 3, results obtained by the Draize test, liquid products.

In the case of `CC(C)(O)CCC(C)(C)O`, the EIT prediction result in series [1] (setting [3]) was “Cat 1”. Moreover, the “Irritation INDEX” value in series [1] (setting [4]) was found to be 22; in series [1] (setting [5]), 23; in series [1] (setting [6]) it was 21. The UN-GHS entry in the series with eye (Draize test classification) is “Cat 1”. Also, the “GHS Class” value in the series on eye (setting [7]) is recorded as “Cat 1”. Further, the “eye irritation category as stated in text and figure legends” value (“eye irritation category as stated” below) in the series on eye (setting [8]) is “category 1”.

For the molecule `O=C(Nc1ccc(Cl)cc1)Nc1ccc(Cl)c(Cl)c1` [1-(4-Chlorophenyl)-3-(3,4-dichlorophenyl) urea], the EIT prediction entry in series [1] (setting [3]) is listed as “No Cat”. For the same molecule, the “Irritation INDEX” value was found to be 0 in series [1] (setting [4]), 0 in series [1] (setting [5]) and 1 in series [1] (setting [6]). The UN-GHS result with eye (Draize test classification) is reported as “No Cat”. Moreover, in the series with eye (setting [7]), the “GHS Class” value was “No cat”.

`Cc1cc(C)nc(Nc2ccccc2)n1` [2-Anilino-4,6-dimethylpyrimidine]: in series [1], the EIT prediction entry is recorded as “No Cat”. Besides, the “Irritation INDEX” value in series [1] (human, 30 min, 60 mg/cm2) is recorded as 0. Further, in the series on eye (rabbit, in vivo), the “GHS Class” value is “No cat”; the UN-GHS result is “No Cat”; the “eye irritation category as stated” value is listed as “No category”.

Turning to `CC(C)(C)c1cc(Cc2cc(C(C)(C)C)c(O)c(C(C)(C)C)c2)cc(C(C)(C)C)c1O` [4,4′-Methylene bis-(2,6-di-tert-butylphenol)], in series [1], the EIT prediction result was “No Cat”. For the same molecule, in the series with eye (Draize test classification), the UN-GHS result is given as “No Cat”. In addition, the “GHS Class” value in the series with eye (setting [7]) is on record as “No cat”. For the same molecule, the “eye irritation category as stated” value in the series with eye (setting [8]) is “No category”.

In the case of `CCOc1ccc(Br)cc1` [4-Bromophenetol], in series [1] (setting [3]), the EIT prediction result is “No Cat”. The “Irritation INDEX” value in series [1] (setting [4]) is 2; in series [1] (setting [5]), 2; in series [1] (setting [6]) it was 3. The UN-GHS entry with eye (Draize test classification) was “No Cat”. Moreover, the “GHS Class” value with eye (setting [7]) is on record as “No cat”. The “eye irritation category as stated” value with eye (setting [8]) is listed as “No category”.

Take `CC(C)(C)CC(C)(C)c1cc(Cc2cc(C(C)(C)CC(C)(C)C)cc(-n3nc4ccccc4n3)c2O)c(O)c(-n2nc3ccccc3n2)c1` [Methylene bis-benzotriazolyl tetramethylbutyl phenol]: the EIT prediction entry in series [1] was “No Cat”. Moreover, in the series with eye (Draize test classification), the UN-GHS result was “No Cat”.

Consider `F[B-](F)(F)F.[K+]` [Potassium tetrafluoroborate], for which, in series [1] (setting [3]), the EIT prediction result is on record as “No Cat”. The “Irritation INDEX” value is recorded as 4 in series [1] (setting [4]), 6 in series [1] (setting [5]) and 2 in series [1] (setting [6]). Also, in the series on eye (Draize test classification), the UN-GHS result is given as “No Cat”. The “GHS Class” value in the series with eye (setting [7]) was “No cat”. In the series with eye (setting [8]), the “eye irritation category as stated” value is reported as “No category”.

Consider `CC(CN1c2ccccc2Sc2ccccc21)N(C)C` (stereo not drawn) [Promethazine hydrochloride], for which, in series [1] (human, 30 min, 60 mg/cm2), the EIT prediction entry is on record as “Cat 1”. For the same molecule, the UN-GHS entry in the series on eye (Draize test classification) is “Cat 1”. In addition, the “GHS Class” value with eye (setting [7]) is “Cat 1”. In the series on eye (setting [8]), the “eye irritation category as stated” value is “category 1”.

As for `O=C([O-])C(=O)[O-].[Na+].[Na+]` [Sodium oxalate], in series [1], the EIT prediction entry is listed as “Cat 1”. Moreover, the UN-GHS entry with eye (Draize test classification) is listed as “Cat 1”. For the same molecule, the “GHS Class” value in the series with eye (setting [7]) is “Cat 1”. Also, the “eye irritation category as stated” value with eye (setting [8]) was “category 1”.

In the case of `CCCCCCCCCCCCCCOC(=O)CCCCCCCCCCCCC` [Tetradecyl tetradecanoate], the EIT prediction result in series [1] was “No Cat”. The “eye irritation category as stated” value in the series on eye (setting [8]) is recorded as “No category”.

In the case of `CC(C)(O)C(=O)O` [alpha-Hydroxyisobutyric acid], the EIT prediction result in series [1] (human, 30 min, 60 mg/cm2) is “Cat 1”. Besides, in the series on eye (setting [8]), the “eye irritation category as stated” value is on record as “category 1”.

Triton X100 [Triton X100 1%]: the EIT prediction result in series [2] is “No Cat”. Further, the UN-GHS entry with eye (setting [9]) is recorded as “No Cat”.

Triton X100 [Triton X100 5%]: the EIT prediction result in series [2] was “Cat 2”. For the same molecule, the UN-GHS entry in the series with eye (setting [9]) was “Cat 2A”.

For the molecule Triton X100 [Triton X100 10%], the EIT prediction entry in series [2] was “Cat 1”. For the same molecule, in the series with eye, the “UN GHS” value was “Cat 1”. The UN-GHS entry with eye (setting [9]) was “Cat 1”.

Take Triton X-100 [Triton X-100 10%]: the EIT prediction entry in series [2] is on record as “Cat 1”. Further, the “UN GHS” value in the series on eye is reported as “Cat 1”. Also, in the series with eye (setting [9]), the UN-GHS entry is on record as “Cat 1”.
